# From US8084469B2, “Substituted piperidines” (Bayer Pharma Aktiengesellschaft, priority 2009, dated 2011)
# Biological target: T1, human protease activated receptor 1 (PAR-1) (Homo sapiens, UniProt P25116)
# T1 construct: the cell stably expresses the endogenous human PAR-1 receptor; endogenous in cells; host or cells: HEK293-derived recombinant cell line; only the aequorin reporter is recombinant
# T1 sequence (P25116 22-425): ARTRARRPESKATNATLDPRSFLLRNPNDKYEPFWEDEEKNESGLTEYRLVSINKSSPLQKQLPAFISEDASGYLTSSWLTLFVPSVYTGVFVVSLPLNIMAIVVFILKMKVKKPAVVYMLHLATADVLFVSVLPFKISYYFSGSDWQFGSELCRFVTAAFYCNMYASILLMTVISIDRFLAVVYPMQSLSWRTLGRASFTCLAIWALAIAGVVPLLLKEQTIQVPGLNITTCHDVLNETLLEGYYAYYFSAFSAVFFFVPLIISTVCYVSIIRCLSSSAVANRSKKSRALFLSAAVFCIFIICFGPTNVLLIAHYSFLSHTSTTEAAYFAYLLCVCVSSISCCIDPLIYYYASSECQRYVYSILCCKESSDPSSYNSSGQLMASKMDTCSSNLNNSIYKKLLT
# Assay: Cellular functional in vitro test (aequorin luminescence in recombinant HEK293 PAR-1 test cell)
# Assay type: cell-based
# Conditions: PAR-1 test cell (HEK293-derived), PAR-1 agonist at EC50 concentration, aequorin light signal
# Excerpt: Cellular Functional In Vitro Test
# A recombinant cell line is used to identify antagonists of the human protease activated receptor 1 (PAR-1) and to quantify the activity of the substances described herein. The cell is originally derived from a human embryonal kidney cell (HEK293; ATCC: American Type Culture Collection, Manassas, Va. 20108, USA). The test cell line constitutively expresses a modified form of the calcium-sensitive photoprotein aequorin which, after reconstitution with the cofactor coelenterazine, emits light when the free calcium concentration in the inner mitochondrial compartment is increased (Rizzuto R, Simpson A W, Brini M, Pozzan T.; Nature 1992, 358, 325-327). Additionally, the cell stably expresses the endogenous human PAR-1 receptor and the endogenous purinergic receptor P2Y2. The resulting PAR-1 test cell responds to stimulation of the endogenous PAR-1 or P2Y2 receptor with an intracellular release of calcium ions, which can be quantified through the resulting aequorin luminescence with a suitable luminometer (Milligan G, Marshall F, Rees S, Trends in Pharmacological Sciences 1996, 17, 235-237).
# For the testing of the substance specificity, the effect thereof after activation of the endogenous PAR-1 receptor is compared with the effect after activation of the endogenous purinergic P2Y2 receptor which utilizes the same intracellular signal path.
# Test procedure: The cells are plated out two days (48 h) before the test in culture medium (DMEM F12, supplemented with 10% FCS, 2 mM glutamine, 20 mM HEPES, 1.4 mM pyruvate, 0.1 mg/ml gentamycin, 0.15% Na bicarbonate; BioWhittaker Cat.# BE04-687Q; B-4800 Verviers, Belgium) in 384-well microtitre plates and kept in a cell incubator (96% atmospheric humidity, 5% v/v CO2, 37° C.). On the day of the test, the culture medium is replaced by a tyrode solution (in mM: 140 sodium chloride, 5 potassium chloride, 1 magnesium chloride, 2 calcium chloride, 20 glucose, 20 HEPES), which additionally contains the cofactor coelenterazine (25 μM) and glutathione (4 mM), and the microtitre plate is then incubated for a further 3-4 hours. The test substances are then pipetted onto the microtitre plate, and 5 minutes after the transfer of the test substances into the wells of the microtitre plate the plate is transferred into the luminometer, a PAR-1 agonist concentration which corresponds to EC50 is added and the resulting light signal is immediately measured in the luminometer. To distinguish an antagonist substance action from a toxic action, the endogenous purinergic receptor is immediately subsequently activated with agonist (ATP, final concentration 10 μM) and the resulting light signal is measured.
row,Compound,IC50
1,"O=C(N1CCOCC1)N1CC(c2ccc(C(F)(F)F)cc2)CC(c2nc(NC3CC3)no2)C1 (racemic) [Example 9, {3-[3-(Cyclopropylamino)-1,2,4-oxadiazol-5-yl]-5-[4-(trifluoromethyl)phenyl]piperidin-1-yl}-(morpholin-4-yl)methanone]",14.3 nM
2,"CCN(CCO)c1noc(C2CC(c3ccc(C(F)(F)F)cc3)CN(C(=O)N3CCOCC3)C2)n1 (racemic) [Example 16, (3-{3-[Ethyl(2-hydroxyethyl)amino]-1,2,4-oxadiazol-5-yl}-5-[4-(trifluoromethyl)phenyl]piperidin-1-yl)(morpholin-4-yl)methanone]",69.4 nM
3,"CC(C)Oc1noc(C2CC(c3ccc(OC(F)(F)F)cc3)CN(C(=O)N3CCSCC3)C2)n1 (racemic) [Example 33, {3-(3-Isopropoxy-1,2,4-oxadiazol-5-yl)-5-[4-(trifluoromethoxy)phenyl]piperidin-1-yl}(thiomorpholin-4-yl)methanone]",1.7 nM
4,"CCOc1noc(C2CC(c3ccc(CC)cc3)CN(C(=O)N3CC(O)C3)C2)n1 (racemic) [Example 35, [3-(3-Ethoxy-1,2,4-oxadiazol-5-yl)-5-(4-ethylphenyl)piperidin-1-yl](3-hydroxyazetidin-1-yl)methanone]",35.3 nM
5,"CCOc1noc(C2CC(c3ccc(CC(F)(F)F)cc3)CN(C(=O)N3CCS(=O)(=O)CC3)C2)n1 (racemic) [Example 67, (1,1-Dioxidothiomorpholin-4-yl){3-(3-ethoxy-1,2,4-oxadiazol-5-yl)-5-[4-(2,2,2-trifluoroethyl)-phenyl]piperidin-1-yl}methanone]",12 nM
6,"CCOc1noc(C2CC(c3ccc(CC)c(F)c3)CN(C(=O)N3CCS(=O)(=O)CC3)C2)n1 (racemic) [Example 101, (1,1-Dioxidothiomorpholin-4-yl)[3-(3-ethoxy-1,2,4-oxadiazol-5-yl)-5-(4-ethyl-3-fluorophenyl)-piperidin-1-yl]methanone]",6.3 nM
7,"CCN(CC)c1noc(C2CC(c3ccc(C(F)(F)F)cc3)CN(C(=O)N3CCOCC3)C2)n1 (single isomer, unassigned) [Example 6, {3-[3-(Diethylamino)-1,2,4-oxadiazol-5-yl]-5-[4-(trifluoromethyl)phenyl]piperidin-1-yl}-(morpholin-4-yl)methanone]",8.7 nM
8,"CCc1ccc(C2CC(c3nc(OCCOC)no3)CN(C(=O)N3CCS(=O)(=O)CC3)C2)cc1 (single isomer, unassigned) [Example 63, (1,1-Dioxidothiomorpholin-4-yl){3-(4-ethylphenyl)-5-[3-(2-methoxyethoxy)-1,2,4-oxadiazol-5-yl]-piperidin-1-yl}methanone]",20.6 nM
9,"CCOc1noc(C2CC(c3ccc(CC(F)(F)F)cc3)CN(C(=O)N3CC[S+]([O-])CC3)C2)n1 (single isomer, unassigned) [Example 66, {3-(3-Ethoxy-1,2,4-oxadiazol-5-yl)-5-[4-(2,2,2-trifluoroethyl)phenyl]piperidin-1-yl}(1-oxidothio-morpholin-4-yl)methanone]",64.5 nM
10,"CCOc1noc(C2CC(c3ccc(CC(F)(F)F)cc3)CN(C(=O)N3CCS(=O)(=O)CC3)C2)n1 (single isomer, unassigned) [Example 69, (1,1-Dioxidothiomorpholin-4-yl){3-(3-ethoxy-1,2,4-oxadiazol-5-yl)-5-[4-(2,2,2-trifluoroethyl)-phenyl]piperidin-1-yl}methanone]",21.1 nM
11,"CCOc1noc(C2CC(c3ccc(CC(F)(F)F)c(F)c3)CN(C(=O)N3CC[S+]([O-])CC3)C2)n1 (single isomer, unassigned) [Example 80, {3-(3-Ethoxy-1,2,4-oxadiazol-5-yl)-5-[3-fluoro-4-(2,2,2-trifluoroethyl)phenyl]piperidin-1-yl}(1-oxidothiomorpholin-4-yl)methanone]",5.1 nM
